Reference: patent US5633274A, “Cancer treatments” (President and Fellows of Harvard College, priority 1993, dated 1997)
Entries after “also recorded” stand apart in the source; their conditions may differ. Where two headings read alike, the source gives them in different places.

Tests used:
[1] = target: T1, Ca++ activated K channel of human erythrocytes (Homo sapiens, UniProt O15554); experiment: Inhibition of Ca++ activated K channel of human erythrocytes (86Rb influx, K efflux); type: cell-based
T1 construct: Preparation of Human Red Blood Cells: Blood is collected in heparinized tubes; endogenous in cells; host or cells: washed human erythrocytes (red blood cells) from heparinized blood
Description: Preparation of Human Red Blood Cells: Blood is collected in heparinized tubes and centrifuged in a Sorvall centrifuge (RB 5B, Du Pont Instruments,Newtown, Conn.) at 5° C. for 10 minutes at 3000 g. Plasma and buffy coat are carefully removed and the cells washed four times with a washing solution containing 150 mM choline chloride (Sigma Co), 1 mM MgC12 (Sigma Co), 10 mM Tris-MOPS (Sigma, Ca), pH 7.4 at 4° C.(CWS). An aliquot of cells is then suspended in an approximately equal volume of CWS, and from this original cell suspension hematocrit (Hct) and hemoglobin (optical density at 540 nm) are determined.
Methods to Test Inhibitors of the Ca^++ Activated K: To test inhibitors of the Ca^++ activated K channel, the channel is activated using the calcium ionophore A23187 (Chalbiochem).
By Atomic Absorption Spectrometry: Washed human erythrocyte are suspended at an hematocrit≈1% in CWS containing 0.150 mM CaCl2 (Sigma Co) Aliquots of 1 ml are removed at 0, 3 and 5 minutes, layered on top of 0.3 ml of the oil n-butyl phthalate (Fair Lane, N.J.) placed in an Eppendorf microtube (Fisher) and then centrifuged in a micro centrifuge for 20 seconds. At time 5.30 minutes, ionophore A23187 (1 μM final concentration) is added and samples removed and spin down through phthalate at times 6, 7, 8 and 9 minutes. The supernatant on top of the oil layer is removed and its K+ concentration is measured by atomic absorption spectrometry using a Perking Elmer model 5000 spectrometer (Perkin Elmer Corp., Norwolk, Conn.). The efflux of K+ (mmol/l cells/h) in the absence and presence of the inhibitor is calculated from the slope of the curves relating the K+ concentration in the supernatants (mmol/l cells) vs. time (min.).
By radioisotopic measurement of ^86 Rb influx. The incubation medium is the same but contains 2 mM KCl and 1 μCi/ml of the radioactive tracer ^86 Rb. After spinning the samples through the phthalate layer, the tubes are rapidly frozen (-80° C.) by immersion in methanol-dry ice, the tips of the tubes containing the packed red cells cut, and counted in a Packard Gamma Counter.
The inhibitory effect of (CLT) on the Ca^++ activated K channel of human erythrocytes was assessed in the presence of 60 μmol A23187/L cell and 100 μMCaCl2.
Other antimycotics were tested for their inhibition of the Ca++ activated 86Rb influx human erythrocytes.

nonprostate cancer cells = experiment: Proliferation of nonprostate cancer cells (general statements); type: cell-based; settings: for inhibition of (nonprostate cancer) cell proliferation: other channel and transport inhibitors
[2] = system: primary human sarcoma cells; experiment: bFGF-stimulated DNA synthesis in primary human sarcoma cells; type: cell-based; settings: for inhibition of DNA synthesis by other inhibitors of the Ca++ activated K channel: toxins, concentration not given
Description: (§1) Primary human sarcomas rabdomyosarcoma and liposarcoma: Fresh human cancer specimens were obtained from human subjects undergoing a surgical procedure; the tumors were treated with colagenase to dissociate the cells which were then seeded at low density (1×10^5 in small culture chambers containing hybridomas grade culture medium supplemented with 5% fetal calf serum; after 12 hrs., when the cells were attached to the surface of the culture chambers, CLT (10 μM) or carrier (ethanol) were added *triplicate chambers). After 48 hours cell growth was assessed by optic miscroscopy calculating the surface of the culture flask covered by the cell monolayer.
Other antimycotics were tested for their inhibition of bFGF-stimulated DNA synthesis in the primary human sarcoma cells of Example 3.

17-20 desmolase = settings: background; cited from earlier work
[3] = system: 21- and/or 11-hydroxylase; settings: background; cited from earlier work
[4] = system: testicular and adrenal synthesis of steroid hormones, including testosterone; settings: cited from earlier work
17-hydroxylase = settings: background; cited from earlier work
[5] = system: rat vascular smooth muscle cells; experiment: cells; settings: read-out: inhibition of DNA synthesis
Description: (§4) DNA synthesis assessed by the uptake of [3H]thymidine: Cells are grown in either 48 or 96 wells plates (Costar, Cambridge, Mass.) at 10^4 and 0.8 10^3 cells per well, respectively, and grown in Dubelcco's modified Eagle's medium (DME, Gibco, Grand Island, N.Y.) supplemented with 10% heat-inactivated calf serum; they are kept at 37° C. in 5% CO2. When they reach confluence, usually between 3 and 4 days, the medium is replaced with DME 0.5% serum to make them quiescent, and mitogenesis assays are performed 24 hours later.
(§5) Quiescent cells are exposed to a mitogenic stimulus, such as 10% serum, PDGF (Sigma Co. St. Louis, Mo.), bFGF (Upstate Biotechnologies, Lake Placid, N.Y.), or other appropriate mitogen according to the cell line, and 3 hours later 1 μCi/ml of [3H]thymidine (Dupont, Billerica, Mass.) is added to the wells, and the cells maintained at 37° C./5% CO2 for additional 21 hours. Then the cells are washed 3 times with DME medium and the acid-precipitable radioactivity is extracted with cold 10% TCA (Sigma, Co). After neutralization with 0.3N NaOH (Sigma Co.), aliquots are counted in a Packard Tri-Carb Scintillation counter (Packard Instrument, Downer's Grove, Ill.).
Cells were stimulated using 5 μM bFGF.

[6] = system: human lung adenocarcinoma cells; experiment: DNA synthesis ([3H]thymidine incorporation) in human lung adenocarcinoma cells; type: cell-based; settings: FIG. 1
Description: (§2) The inhibitory effect of clotrimazol (CLT) on cell proliferation was assessed in cancerous cells. Quiescent human colon adenocarcinoma and human lung adenocarcinoma cells were stimulated with 5% fetal calf serum and synthesis of DNA was assessed by the incorporation of [3H]thymidine measures 24 hours later. […] The effect was not due to a toxic, non-specific, effect because it was reversed by removing CLT and re-stimulating the cells with 5% fetal calf serum (FIG. 1).

[7] = system: rat vascular smooth muscle cells
Description: as §4, §5
Cells were stimulated using 5 μM bFGF.

[8] = system: human colon adenocarcinoma cells; experiment: DNA synthesis ([3H]thymidine incorporation) in human colon adenocarcinoma cells; type: cell-based; settings: FIG. 1
Description: as §2

adenocarcinomas in rats = experiment: Inhibition of tumor growth in vivo (adenocarcinomas in rats); set-up: species or system rat
Description: The efficacy of CLT was studied in inhibiting the growth of adenocarcinomas in rats. […] Tumors were measured by size and weight on a daily basis, and growth rates were calculated. Nonparametric statistical comparisons were made among the median growth rates of all of the treatment groups.

[9] = system: Primary human sarcomas rabdomyosarcoma; experiment: Cell growth of primary human rabdomyosarcoma (surface covered by monolayer); type: cell-based; settings: 10 μM CLT; 48 hours
Description: (§3) Measurement of cell density in culture plates: Cells of a specific test cell line are seeded at precisely the same low density in culture plates and incubated for approximately 12 hours in DME 10% serum, or other culture medium depending on the cell line tested. […] Alternatively, the cells can be detached from the plate by incubation with trypsin (Sigma, Co.) […] in ethylene diaminotetraacetic acid (ECTA; Sigma, Co); then the cells are counted in an hemocytometer chamber (Fisher, Pittsburgh, Pa.).
as §1

[10] = system: Primary human sarcomas liposarcoma; experiment: Cell growth of primary human liposarcoma (surface covered by monolayer); type: cell-based; settings: 10 μM CLT; 48 hours
Description: as §3, §1

[11] = other antimycotics, human erythrocytes, FIG. 4
[12] = 60 μmol A23187/L cell and 100 μM CaCl2
[13] = 10 μM CLT, 5% fetal calf serum stimulation, 24 hours
[14] = re-stimulated with 5% fetal calf serum

In the case of `OC(Cn1cncn1)(Cn1cncn1)c1ccc(F)cc1F` [fluconazole], the “inhibition of Ca++ activated 86Rb influx” value [1, 11] is reported as “no inhibition”.

For `C[C@@H]1O[C@@H](O[C@H]2C[C@@H](O)[C@]3(CO)[C@H]4[C@H](O)C[C@]5(C)[C@@H](C6=CC(=O)OC6)CC[C@]5(O)[C@@H]4CC[C@]3(O)C2)[C@H](O)[C@H](O)[C@H]1O` [ouabain], the “inhibition of (nonprostate cancer) cell proliferation” value (nonprostate cancer cells) was “do not inhibit cell proliferation”.

For `Clc1ccc(COC(Cn2ccnc2)c2ccc(Cl)cc2Cl)cc1` (stereo not shown) [econazole], the “order of inhibitory potency (Ca++ activated 86Rb influx)” value ([1]; human erythrocytes, FIG. 4) was “both of these were more than econazole”, the “inhibition of bFGF-stimulated DNA synthesis” value ([2]; 10 μM, FIG. 3) was “inhibited DNA synthesis” and the “order of inhibitory potency (DNA synthesis)” value ([2]; 10 μM, FIG. 3) was “ECZ more potent than MCZ”.

For `Cc1ncc([N+](=O)[O-])n1CC(O)CCl` (stereo not shown) [ornidazole], the “inhibition of Ca++ activated 86Rb influx” value [1, 11] was “no inhibition”.

For `CC(=O)N1CCN(c2ccc(OCC3COC(Cn4ccnc4)(c4ccc(Cl)cc4Cl)O3)cc2)CC1` (stereo not shown) [ketoconazole], the “inhibition of 17-20 desmolase” value (17-20 desmolase) is given as “inhibition”, the “inhibition of growth/proliferation of nonprostate cancer cells” value (nonprostate cancer cells; nonprostate cancer cells tested by the applicants) is given as “ineffective; also recorded: not useful for inhibiting proliferation” and the “inhibition of 21- and/or 11-hydroxylase” value [3] is given as “marked inhibition”. For the same compound, the “inhibition of testicular and adrenal synthesis of steroid hormones, including testosterone” value ([4]; in high doses) was “inhibits testicular and adrenal synthesis of steroid hormones, including testosterone”, the plasma testosterone ([4]; prostate cancer treatment) was “reduces plasma testosterone to castration levels” and the “blockade of 17-hydroxylase” value (17-hydroxylase) was “partial blockade”.

For `N=C(N)NC(=O)c1nc(Cl)c(N)nc1N` [amiloride], the “inhibition of (nonprostate cancer) cell proliferation” value (nonprostate cancer cells) was “do not inhibit cell proliferation”.

With `Cc1ncc([N+](=O)[O-])n1CCO` [metronidazole] the “inhibition of Ca++ activated 86Rb influx” value [1, 11] was “only marginal”.

For `Clc1ccc(COC(Cn2ccnc2)c2ccc(Cl)cc2Cl)c(Cl)c1` (stereo not shown) [miconazole], the “order of inhibitory potency (Ca++ activated 86Rb influx)” value ([1]; human erythrocytes, FIG. 4) was “clotrimazole more than miconazole; and both of these were more than econazole”, the “inhibition of bFGF-stimulated DNA synthesis” value ([2]; 10 μM, FIG. 3) was “inhibited DNA synthesis” and the “order of inhibitory potency (DNA synthesis)” value ([2]; 10 μM, FIG. 3) was “ECZ more potent than MCZ”.

With “kaliotoxin: specific inhibitor of the Ca++ activated potassium channel” the “inhibition of DNA synthesis by other inhibitors of the Ca++ activated K channel” value [2] was “failed to inhibit DNA synthesis” and the “inhibition of (nonprostate cancer) cell proliferation” value (nonprostate cancer cells) was “do not inhibit proliferation”.

In the case of `Clc1ccccc1C(c1ccccc1)(c1ccccc1)n1ccnc1` [clotrimazole], the inhibition at 1 µM [5] is reported as 45%, the “inhibition of Ca++ activated 86Rb influx” value [1, 12] is reported as “markedly inhibited” and the “inhibition of K efflux” value [1, 12] is reported as “markedly inhibited”. For the same compound, the “order of inhibitory potency (Ca++ activated 86Rb influx)” value ([1]; human erythrocytes, FIG. 4) was “clotrimazole more than miconazole”, the “inhibition of DNA synthesis” value [6, 13] was “completely inhibited” and the “reversibility of effect on removing CLT and re-stimulating (not due to a toxic, non-specific effect)” value [6, 14] was “reversed”. The “dose dependence of inhibition of DNA synthesis” value ([7]; 0.001 μM, 0.1 μM, 1 μM and 10 μM) was “dose dependent”, the “inhibition of DNA synthesis” value ([7]; 10 μM, bFGF stimulation) was “complete inhibition” and the “order of inhibitory potency (DNA synthesis)” value [2] was “CLT more potent than ECZ”. The “inhibition of bFGF-stimulated DNA synthesis” value ([2]; 10 µM) was “inhibited DNA synthesis”, the “inhibition of DNA synthesis” value [8, 13] was “completely inhibited” and the “reversibility of effect on removing CLT and re-stimulating (not due to a toxic, non-specific effect)” value [8, 14] was “reversed”. For the same compound, the “median tumor growth rate” value (adenocarcinomas in rats; 100 mg/kg by mouth in peanut oil) was “significant reduction”, the “median tumor growth rate” value (adenocarcinomas in rats; 200 mg/kg by mouth in peanut oil) was “significant reduction” and the “growth of sarcoma cells” value [9] was “completely arrested”. For the same compound, the inhibition of growth [9] was “More than 95%”, the “growth of sarcoma cells” value [10] was “completely arrested” and the inhibition of growth [10] was “More than 95%”.

With `CCS(=O)(=O)CCn1c([N+](=O)[O-])cnc1C` [tinidazole] the “inhibition of Ca++ activated 86Rb influx” value [1, 11] was “no inhibition”.

In the case of charybdotoxin, the “inhibition of DNA synthesis by other inhibitors of the Ca++ activated K channel” value [2] is reported as “failed to inhibit DNA synthesis” and the “inhibition of (nonprostate cancer) cell proliferation” value (nonprostate cancer cells) is reported as “do not inhibit proliferation”.
